Data reported in US20070009563A1, “PROCESS FOR COATING FIBER OR FABRIC WITH INSECTICIDE USING A TEMPERATURE OF 150°C-190°C FOR DRYING” (priority 2005, published 2007).

Legend:
mosquitoes = assay: Efficiency test for mosquito net dipped in insecticide: 3 minutes contact, knock down and mortality; type: in vivo; details: for % KD, After Washing 5 Times / % mort., After Washing 5 Times: after 5 washes; for % KD, After Washing 5 Times / % KD, After Washing 10 Times / % KD, After Washing 15 Times / % KD, After Washing 20 Times / % KD, Before Washing: knock down after 60 minutes; for % mort., After Washing 5 Times / % mort., After Washing 10 Times / % mort., After Washing 15 Times / % mort., After Washing 20 Times / % mort., Before Washing: mortality after 24 hours; for % KD, After Washing 10 Times / % mort., After Washing 10 Times: after 10 washes; for % KD, After Washing 15 Times / % mort., After Washing 15 Times: after 15 washes; for % KD, After Washing 20 Times / % mort., After Washing 20 Times: after 20 washes
Experimental: The efficiency test for mosquito net dipped in insecticide/insect repellent is done by letting mosquitoes rest on the mosquito net for 3 minutes and then catching the mosquitoes, placing them in a clean container, and observing them to see which of the following conditions apply:
1. % Knock down (% KD): the number of mosquitoes that cannot move after 60 minutes, in some embodiments, must be more than 80%.
2. Mortality (% mort.): the mortality rate of mosquitoes after 24 hours, in some embodiments, must be more than 95%.

insects = details: with small dosages; cited from earlier work
[1] = Quantity of deltamethrin on mosquito net fabric before and after washing (WHO washing procedure standard); type: physicochemical; details: for Deltamethrin on the fabric, After Washing 5 Times: after 5 washes; for Deltamethrin on the fabric, After Washing 10 Times: after 10 washes; for Deltamethrin on the fabric, After Washing 15 Times: after 15 washes; for Deltamethrin on the fabric, After Washing 20 Times: after 20 washes
Description: In addition, the temperatures used for drying the fabric in the manufacturing process affect washing resistance. That is, the fabric which is dried at higher temperature can resist washing better than the fabric that is dried at lower temperature.

[2] = Quantity of deltamethrin on mosquito net fabric after drying at various temperatures; type: physicochemical; details: polyester net coated at 55 mg/m^2
Experimental: High temperatures in the range of 150° C.-190° C. are used in the process of fabric drying according to the present invention to create fiber stability and strengthen chemicals used for stabilizing that fiber in order to make the insecticide adhere to the fiber. However, this temperature range affects the insecticide degradation. For example, coating of a polyester mosquito net with deltamethrin requires a deltamethrin concentration of 55 mg/m^2. The material is then dried at various temperatures using the same length of time for drying.
The ratio of deltamethrin degradation is also affected by the length of time for drying.

With `CC1(C)[C@H](C(=O)O[C@H](C#N)c2cccc(Oc3ccccc3)c2)[C@@H]1C=C(Br)Br` [deltamethrin, Deltamethrin] the “% KD, After Washing 5 Times” value (mosquitoes; drying temperature 150 °C) was 100%, the “% mort., After Washing 5 Times” value (mosquitoes; drying temperature 150 °C) was 100% and the “% KD, After Washing 10 Times” value (mosquitoes; drying temperature 150 °C) was 100%. The “% mort., After Washing 10 Times” value (mosquitoes; drying temperature 150 °C) was 100%, the “% KD, After Washing 15 Times” value (mosquitoes; drying temperature 150 °C) was 100% and the “% mort., After Washing 15 Times” value (mosquitoes; drying temperature 150 °C) was 90%. The “% KD, After Washing 20 Times” value (mosquitoes; drying temperature 150 °C) was 95%, the “% mort., After Washing 20 Times” value (mosquitoes; drying temperature 150 °C) was 82% and the “% KD, Before Washing” value (mosquitoes; drying temperature 150 °C) was 100%. For the same molecule, the “% mort., Before Washing” value (mosquitoes; drying temperature 150 °C) was 100%, the “% KD, After Washing 5 Times” value (mosquitoes; drying temperature 160 °C) was 100% and the “% mort., After Washing 5 Times” value (mosquitoes; drying temperature 160 °C) was 100%. The “% KD, After Washing 10 Times” value (mosquitoes; drying temperature 160 °C) was 100%, the “% mort., After Washing 10 Times” value (mosquitoes; drying temperature 160 °C) was 96% and the “% KD, After Washing 15 Times” value (mosquitoes; drying temperature 160 °C) was 100%. The “% mort., After Washing 15 Times” value (mosquitoes; drying temperature 160 °C) was 90%, the “% KD, After Washing 20 Times” value (mosquitoes; drying temperature 160 °C) was 96% and the “% mort., After Washing 20 Times” value (mosquitoes; drying temperature 160 °C) was 80%. The “% KD, Before Washing” value (mosquitoes; drying temperature 160 °C) was 100%, the “% mort., Before Washing” value (mosquitoes; drying temperature 160 °C) was 100% and the “% KD, After Washing 5 Times” value (mosquitoes; drying temperature 170 °C) was 100%. For the same molecule, the “% mort., After Washing 5 Times” value (mosquitoes; drying temperature 170 °C) was 100%, the “% KD, After Washing 10 Times” value (mosquitoes; drying temperature 170 °C) was 100% and the “% mort., After Washing 10 Times” value (mosquitoes; drying temperature 170 °C) was 100%. The “% KD, After Washing 15 Times” value (mosquitoes; drying temperature 170 °C) was 100%, the “% mort., After Washing 15 Times” value (mosquitoes; drying temperature 170 °C) was 90% and the “% KD, After Washing 20 Times” value (mosquitoes; drying temperature 170 °C) was 95%. For the same molecule, the “% mort., After Washing 20 Times” value (mosquitoes; drying temperature 170 °C) was 82%, the “% KD, Before Washing” value (mosquitoes; drying temperature 170 °C) was 100% and the “% mort., Before Washing” value (mosquitoes; drying temperature 170 °C) was 100%. The “% KD, After Washing 5 Times” value (mosquitoes; drying temperature 180 °C) was 100%, the “% mort., After Washing 5 Times” value (mosquitoes; drying temperature 180 °C) was 82% and the “% KD, After Washing 10 Times” value (mosquitoes; drying temperature 180 °C) was 95%. For the same molecule, the “% mort., After Washing 10 Times” value (mosquitoes; drying temperature 180 °C) was 62%, the “% KD, After Washing 15 Times” value (mosquitoes; drying temperature 180 °C) was 82% and the “% mort., After Washing 15 Times” value (mosquitoes; drying temperature 180 °C) was 22%. The “% KD, After Washing 20 Times” value (mosquitoes; drying temperature 180 °C) was 84%, the “% mort., After Washing 20 Times” value (mosquitoes; drying temperature 180 °C) was 0% and the “% KD, Before Washing” value (mosquitoes; drying temperature 180 °C) was 100%. For the same molecule, the “% mort., Before Washing” value (mosquitoes; drying temperature 180 °C) was 98%, the “% KD, After Washing 5 Times” value (mosquitoes; drying temperature 190 °C) was 100% and the “% mort., After Washing 5 Times” value (mosquitoes; drying temperature 190 °C) was 68%. The “% KD, After Washing 10 Times” value (mosquitoes; drying temperature 190 °C) was 95%, the “% mort., After Washing 10 Times” value (mosquitoes; drying temperature 190 °C) was 18% and the “% KD, After Washing 15 Times” value (mosquitoes; drying temperature 190 °C) was 44%. The “% mort., After Washing 15 Times” value (mosquitoes; drying temperature 190 °C) was 0%, the “% KD, After Washing 20 Times” value (mosquitoes; drying temperature 190 °C) was 16% and the “% mort., After Washing 20 Times” value (mosquitoes; drying temperature 190 °C) was 0%. For the same molecule, the “% KD, Before Washing” value (mosquitoes; drying temperature 190 °C) was 100%, the “% mort., Before Washing” value (mosquitoes; drying temperature 190 °C) was 96% and the “effectiveness relative to permethrin” value (insects) was “more than 30 times”. The “Deltamethrin on the fabric, After Washing 5 Times” value ([1]; drying temperature 150 °C) was 40 mg/m^2, the “Deltamethrin on the fabric, After Washing 10 Times” value ([1]; drying temperature 150 °C) was 32 mg/m^2 and the “Deltamethrin on the fabric, After Washing 15 Times” value ([1]; drying temperature 150 °C) was 16 mg/m^2. For the same molecule, the “Deltamethrin on the fabric, After Washing 20 Times” value ([1]; drying temperature 150 °C) was 10 mg/m^2, the “Deltamethrin on the fabric, Before Washing” value (shortened to “Deltamethrin … Before Washing”) ([1]; drying temperature 150 °C) was 55 mg/m^2 and the “Deltamethrin on the fabric, After Washing 5 Times” value ([1]; drying temperature 160 °C) was 42 mg/m^2. For the same molecule, the “Deltamethrin on the fabric, After Washing 10 Times” value ([1]; drying temperature 160 °C) was 36 mg/m^2, the “Deltamethrin on the fabric, After Washing 15 Times” value ([1]; drying temperature 160 °C) was 19 mg/m^2 and the “Deltamethrin on the fabric, After Washing 20 Times” value ([1]; drying temperature 160 °C) was 12 mg/m^2. The “Deltamethrin … Before Washing” value ([1]; drying temperature 160 °C) was 55 mg/m^2, the “Deltamethrin on the fabric, After Washing 5 Times” value ([1]; drying temperature 170 °C) was 44 mg/m^2 and the “Deltamethrin on the fabric, After Washing 10 Times” value ([1]; drying temperature 170 °C) was 38 mg/m^2. For the same molecule, the “Deltamethrin on the fabric, After Washing 15 Times” value ([1]; drying temperature 170 °C) was 22 mg/m^2, the “Deltamethrin on the fabric, After Washing 20 Times” value ([1]; drying temperature 170 °C) was 16 mg/m^2 and the “Deltamethrin … Before Washing” value ([1]; drying temperature 170 °C) was 55 mg/m^2. The “Deltamethrin on the fabric, After Washing 5 Times” value ([1]; drying temperature 180 °C) was 26 mg/m^2, the “Deltamethrin on the fabric, After Washing 10 Times” value ([1]; drying temperature 180 °C) was 20 mg/m^2 and the “Deltamethrin on the fabric, After Washing 15 Times” value ([1]; drying temperature 180 °C) was 16 mg/m^2. For the same molecule, the “Deltamethrin on the fabric, After Washing 20 Times” value ([1]; drying temperature 180 °C) was 4 mg/m^2, the “Deltamethrin … Before Washing” value ([1]; drying temperature 180 °C) was 37 mg/m^2 and the “Deltamethrin on the fabric, After Washing 5 Times” value ([1]; drying temperature 190 °C) was 19 mg/m^2. The “Deltamethrin on the fabric, After Washing 10 Times” value ([1]; drying temperature 190 °C) was 15 mg/m^2, the “Deltamethrin on the fabric, After Washing 15 Times” value ([1]; drying temperature 190 °C) was 8 mg/m^2 and the “Deltamethrin on the fabric, After Washing 20 Times” value ([1]; drying temperature 190 °C) was 4 mg/m^2. The “Deltamethrin … Before Washing” value ([1]; drying temperature 190 °C) was 25 mg/m^2, the “Deltamethrin on the fabric of mosquito net after drying” value (“Deltamethrin … after drying” for short) ([2]; drying temperature 150 °C) was 55 mg/m^2 and the “Deltamethrin … after drying” value ([2]; drying temperature 160 °C) was 55 mg/m^2. For the same molecule, the “Deltamethrin … after drying” value ([2]; drying temperature 170 °C) was 55 mg/m^2, the “Deltamethrin … after drying” value ([2]; drying temperature 180 °C) was 37 mg/m^2 and the “Deltamethrin … after drying” value ([2]; drying temperature 190 °C) was 25 mg/m^2.
